Measurements as given in article PMC3909264, “A Novel Acylaminoimidazole Derivative, WN1316, Alleviates Disease Progression via Suppression of Glial Inflammation in ALS Mouse Model” (PLoS ONE, 2014).
Where a name gives a salt, the structure may show the parent alone.

Legend:
ALS(SOD1^G93A) mice = assay: Post-onset oral administration in ALS(SOD1^G93A) mice: motor function, body weight, survival; type: in vivo
Experimental: In addition, congenic ALS(SOD1^G93A) transgenic mice on a B6 background were also generated by crossing B6SJL-TgN(SOD1-G93A)1Gur [ALS(SOD1^G93A)] males (Jackson Laboratory) to B6 females for more than 11 generations. Both congenic ALS mice were used throughout this study.
The lines were maintained as hemizygotes by mating ALS(SOD1^H46R) and ALS(SOD1^G93A) males with B6 females. Offspring were genotyped by PCR using genomic DNA from tail tissue. Mice were housed at 23°C with a 12 h light/dark cycle, in which water and food was available ad libitum. The condition of each animal was monitored weekly initially and then daily after disease onset. The lifespan was determined by the days from disease onset to the endpoint, in which mouse lost active and/or spontaneous movement. All animal experimental procedures were approved by the Institutional Animal Care and Use Committee at Tokai University.
WN1316 was dissolved in MQ water, and diluted with physiological saline. ALS(SOD1^H46R) transgenic mice were given WN1316 via gastric tube (CAT.No.4202, Fuchigami) at a dose of either 1 µg, 10 µg or 100 µg/5 ml/kg body weight. ALS(SOD1^G93A) transgenic mice were given 10 µg/kg WN1316. Animals simultaneously treated with physiological saline (vehicle group, 5 ml/kg) were used as controls.
To determine the onset of motor dysfunction in ALS(SOD1^H46R) transgenic mice, we adopted a balance beam test as previously described in detail. To determine the onset of motor dysfunction in ALS(SOD1^G93A) transgenic mice, we adopted both balance beam and grip strength tests. Grip strength test was assessed using a traction meter (BrainScience Idea Co., Ltd.). Each mouse was given three trials, and the highest limb strength score was recorded. For ALS(SOD1^G93A) transgenic mice, grip strength tests were started at 11 weeks of age and performed twice a week until an over 20% reduction compared with the initial limb strength score at 11 weeks of age was observed. Finally, a grade 3 in the balance beam test and over 20% reduction of limb strength score were defined as the sign of the disease onset in ALS(SOD1^G93A) transgenic mice.
The gross phenotypes were measured blindly. The body weight of each mouse was measured weekly initially and then daily after disease onset. Mice were assessed for gross behavior every week from 12 weeks of age in ALS(SOD1^H46R) mice and from 11 weeks of age in ALS(SOD1^G93A) mice until the endpoint. In particular, hind limb movement and rearing behavior of each animal were monitored weekly from 12 weeks of age until the end stage. The days from the disease onset to the endpoint were counted individually as the survival interval.
We assessed motor performance and coordination, and balance in the mice by the balance-beam test, vertical pole test, and footprint analysis as previously described in detail and grip strength test as described above. In brief, the balance-beam test was performed every day after the onset until mice were unable to stay on the bar. […] The highest vertical ascending distance was scored. […]
To evaluate the spontaneous motor activities in mice, we conducted cage activity and rearing performance tests by using SUPERMEX with infrared ray sensor monitor (Muromachi Kikai). Both cage activity and rearing performance were monitored for 2 consecutive nights starting at 18 weeks and 21 weeks of age in ALS(SOD1^H46R) mice and at 13 weeks, 17 weeks and 21 weeks of age in ALS(SOD1^G93A) mice. […]

HeLa cells = assay: Detection of intracellular ROS, •OH and 4-HNE after oxidative insult; type: cell-based, human; conditions: 10 µM, 8 h, then menadione or FeSO4/H2O2 1 h
Experimental: HeLa cells (ATCC, CCL-2) cultured on poly-L-lysine-coated coverslips were treated with WN1316 (10 µM) or vehicle (DMSO) for 8 h and incubated with 10 µM H2DCF-DA for 30 min. Cells were then exposed to 60 µM menadione for 1 h. Confocal fluorescence images were obtained using Zeiss LSM 700 confocal microscope.
To detect the hydroxyl radical (•OH), we used hydroxyphenyl fluorescein (HPF) as a specific probe. In brief, HeLa cells were treated with WN1316 (10 µM) or vehicle (DMSO) for 8 h and then incubated with 100 µM HPF for 30 min at 37°C in Hanks’s buffer (Invitrogen). After washing with phosphate-buffered saline (PBS), the reaction buffer (0.1 mM FeSO4, 0.2 mM H2O2) was added, and cells were incubated for 1 h at 37°C to generate •OH. Confocal fluorescence images were obtained using the lambda mode of Zeiss LSM 510 Meta confocal microscope and analytical software.
HeLa cells cultured on poly-L-lysine-coated coverslips were treated with 10 µM WN1316 or DMSO for 8 h, and then incubated in fresh medium containing 60 µM menadione for 1 h. Cells were fixed in 0.1% glutaraldehyde/4% paraformaldehyde/PBS for 10 min, rinsed three times with PBS, and permeabilized with 0.1% Triton-X-100 for 15 min. […]

HO-1 mRNA = assay: qRT-PCR of HO-1 mRNA in lumbar spinal cord of wild type mice; type: in vivo, mouse (C57BL/6N); conditions: 100 µg/kg oral, 3 h post-administration
Experimental: Wild type mice at 8 weeks of age (male, C57BL/6N) were administered per os with either vehicle (physiological saline) or WN1316 (100 µg/kg body weight). After 1 h, 3 h, 6 h and 9 h, mice were transcardially perfused with physiological saline containing 10% heparin under anesthesia with 2% isoflurane by inhalation, and the lumbar spinal cord was dissected. Total RNA was extracted from lumbar spinal cord using Sepasol-RNA I Super G (Nacalai Tesque), and purified by SV Total RNA Isolation System (Promega) according to manufacturer's instructions. qRT-PCR was performed with QuantiFast™ SYBR Green RT-PCR Kit (QIAGEN) on CFX96 (BIO RAD). The PCR primers (QuantiTect Primer Assays) for HO-1 (Mm_Hmox1_1_SG) and PPIA (Mm_Ppia_1_SG) were purchased from QIAGEN. The levels of all transcripts were normalized for the PPIA mRNA level in each sample. Relative expression was calculated using the ΔΔCt method (Livak 2001).

SMILES: Cc1cc(C)c(N(C)CC(=O)Nc2nc(-c3ccccn3)c[nH]2)c(C)c1 [WN1316, 2-[mesityl(methyl)amino]-N-[4-(pyridin-2-yl)-1H-imidazol-2-yl] acetamide trihydrochloride]
- impact including weight gain or loss (ALS(SOD1^G93A) mice; 10 µg/kg/day p.o.): No impact
- post-onset life span (survival interval) (ALS(SOD1^G93A) mice; 10 µg/kg/day p.o., n = 8, mean ± SD (vehicle 57.9±6.0)): 66.1 ± 12.0 days
- balance beam test: duration from onset to the day the mouse was unable to stay on the bar (ALS(SOD1^G93A) mice; 10 µg/kg/day p.o., n = 8, mean ± SEM (vehicle 39.3±2.1)): 47.1 ± 3.0 days
- prolongation of post-onset survival (ALS(SOD1^G93A) mice; 10 µg/kg/day p.o., vs vehicle): 14%
- motor performance by footprint analysis (ALS(SOD1^G93A) mice; 10 µg/kg/day, 20 weeks of age (late symptomatic stage), vs vehicle): sustained motor performance
- level of intracellular •OH and lipid peroxidation (HeLa cells): markedly reduced their levels
- HO-1 mRNA in the lumbar spinal cord (HO-1 mRNA): transient induction
